In patent publication US10612051B2, “Method of producing bioproducts” (White Dog Labs, Inc., priority 2015, dated 2020):

Columns and labels:
[1] = Extraction of aqueous bioproduct solutions with 1-butene in a pressure vessel (distribution coefficient); assay type: physicochemical; conditions: for DC (bioproduct distribution coefficient): 1-butene / aqueous phase, Table 1; for Extract Bioproduct conc. (%) / Raffinate Bioproduct conc. (%): 100 g aqueous solution, 2% initial bioproduct, mixed with 100 g 1-butene; for Extract Bioproduct conc. (%): extract phase; for Raffinate Bioproduct conc. (%): raffinate phase
Procedure: (§1) 100 g (grams) aqueous solutions of various bioproducts were prepared. Bioproduct initial concentration was 2%. Each of these bioproduct aqueous solutions was extracted in a pressure vessel by mixing with 100 g 1-butene (the olefin). The amount of formed extract and formed raffinate and the concentration (conc.) of the bioproduct in each were determined. Theses concentrations were used to calculate the bioproduct distribution coefficient (DC). Table 2 compares the found distribution coefficients to those of extracting with dimethyl ether (DME).

[2] = Extraction with dimethyl ether (DME), distribution coefficient for comparison; assay type: physicochemical; conditions: extracting with dimethyl ether
Procedure: as §1

[3] = 25° C.; cited from earlier work

Structure (SMILES) | DC (bioproduct distribution coefficient) [1] | Extract Bioproduct conc. (%) [1] [%] | Raffinate Bioproduct conc. (%) [1] [%] | Distribution coefficient DME [2] | n-butanol content of saturated aqueous solution [3]
CCCC=O [Butanal] | 6.96 | 1.78 | 0.26 | 5.11 | –
O=C1CCCO1 [Gamma Butyrolactone] | 3.69 | 1.60 | 0.43 | 3.14 | –
CCCC(C)=O [Example 2-Pentanone, 2-Pentanone] | 7.95 | 1.81 | 0.23 | 5.82 | –
CCC(=O)O [Propionic Acid] | 1.01 | 1.00 | 1.00 | 2.27 | –
O=Cc1ccco1 [Furfural] | 3.35 | 1.56 | 0.47 | 3.79 | –
O=C(O)CCCC(=O)O [Glutaric Acid] | 0.27 | 0.44 | 1.51 | 1.88 | –
O=C(O)CCC(=O)O [Succinic Acid] | 0.11 | 0.158 | 1.77 | 1.01 | –
CCCC(=O)OC [Methyl Butyrate] | 53.8 | 2.00 | 0.038 | 20.73 | –
CCCCO [n-butanol] | – | – | – | – | about 7.3 wt %
